Measurements from ChEMBL document CHEMBL1135431, “1-[2-[(5-Cyanopyridin-2-yl)amino]ethylamino]acetyl-2-(S)-pyrrolidinecarbonitrile: a potent, selective, and orally bioavailable dipeptidyl peptidase IV inhibitor with antihyperglycemic properties” (J Med Chem, 2002).

How the values were obtained:
Dipeptidyl peptidase 4 = Dipeptidyl peptidase 4 (Rattus norvegicus, UniProt P14740); assay: In vitro inhibitory activity against Dipeptidyl peptidase IV (DPP-IV) extracted from rat plasma; type: cell-free
[1] = Cmax after an oral dose of 10 umol/Kg in male cynomolgus monkeys; type: ADME, organism-based, Macaca fascicularis; parameters: dose 10 umol/Kg, route oral; conditions: cynomolgus monkey, in vivo
[2] = Steady state volume of distribution in male Sprague-Dawley rats; type: ADME, organism-based; conditions: rat, in vivo
[3] = Clearance from plasma in male Sprague-Dawley rats; type: ADME, organism-based; conditions: rat
Monkey [4] = assay: In vivo ability to reduce the plasma glucose levels ( in 0-90 minutes glucose AUC) in monkey compared to control during an oral glucose tolerance test (PGTT); type: functional, Cercopithecidae
[5] = Cmax after an oral dose of 10 umol/Kg in male Sprague-Dawley rats; type: ADME, organism-based; parameters: dose 10 umol/Kg, route oral; conditions: rat, in vivo
[6] = Absolute bioavailability in maleSprague-Dawley rats; type: ADME, organism-based; conditions: male, Sprague-Dawley, rat, in vivo
[7] = Clearance from plasma in male cynomolgus monkeys; type: ADME, organism-based, Macaca fascicularis; conditions: cynomolgus monkey
[8] = Half-life (t1/2) after an oral dose of 100 mg in human; type: ADME, organism-based; conditions: in vivo
[9] = Absolute bioavailability in male cynomolgus monkeys; type: ADME, organism-based, Macaca fascicularis; conditions: cynomolgus monkey, in vivo
[10] = Steady state volume of distribution male cynomolgus monkeys; type: ADME, organism-based, Macaca fascicularis; conditions: cynomolgus monkey, in vivo
Monkey [11] = assay: In vivo ability to reduce the peak plasma glucose levels in monkey compared to control ( 88 +/- 3 mg/dL) during an oral glucose tolerance test (OGTT); type: functional, Cercopithecidae
[12] = Half-life (t1/2) after an oral dose of 1 uM/Kg in monkey; type: ADME, organism-based; conditions: simiiformes, in vivo

Chain of Dipeptidyl peptidase 4 (P14740 whole entry): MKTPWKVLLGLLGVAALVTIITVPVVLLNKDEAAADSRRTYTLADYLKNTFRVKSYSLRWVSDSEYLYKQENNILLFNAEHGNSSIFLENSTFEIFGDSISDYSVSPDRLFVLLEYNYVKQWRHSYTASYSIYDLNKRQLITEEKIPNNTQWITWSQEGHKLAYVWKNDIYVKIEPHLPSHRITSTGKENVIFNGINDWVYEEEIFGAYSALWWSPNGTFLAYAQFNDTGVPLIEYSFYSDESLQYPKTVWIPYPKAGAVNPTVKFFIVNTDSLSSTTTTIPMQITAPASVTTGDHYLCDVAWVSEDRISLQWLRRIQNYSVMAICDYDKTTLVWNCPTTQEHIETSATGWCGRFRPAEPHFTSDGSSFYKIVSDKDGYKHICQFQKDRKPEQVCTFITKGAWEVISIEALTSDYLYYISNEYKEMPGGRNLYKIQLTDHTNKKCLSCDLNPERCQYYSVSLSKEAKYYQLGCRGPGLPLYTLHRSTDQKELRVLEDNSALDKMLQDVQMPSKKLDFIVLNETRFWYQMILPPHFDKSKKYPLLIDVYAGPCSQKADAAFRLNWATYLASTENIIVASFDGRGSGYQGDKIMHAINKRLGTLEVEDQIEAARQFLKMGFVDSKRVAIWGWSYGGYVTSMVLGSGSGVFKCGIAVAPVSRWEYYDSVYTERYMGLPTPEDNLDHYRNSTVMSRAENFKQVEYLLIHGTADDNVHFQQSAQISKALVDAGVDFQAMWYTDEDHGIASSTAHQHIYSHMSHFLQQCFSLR

Row | IC50 (Dipeptidyl peptidase 4) [nM] | Cmax [1] [µM] | Vd [2] [L/kg] | clearance [3] [mL/min/kg] | Cmax [5] [µM] | bioavailability [6] [%] | clearance [7] [mL/min/kg] | half-life [8] [min] | bioavailability [9] [%] | Vd [10] [L/kg] | half-life [12] [min] | Structure (SMILES) | Reduction (Monkey [4]) [%] | Reduction (Monkey [11])
1 | 2.8 |  |  |  |  |  |  |  |  |  |  | N#C[C@@H]1CCCN1C(=O)[C@@H](N)C1CCCCC1 |  | 
2 |  | 7.56 | 0.67 | 28 | 3.65 | ≥ 74 | 21.9 | 51 | ≥ 74 | 0.841 | 51 | N#Cc1ccc(NCCNCC(=O)N2CCC[C@H]2C#N)nc1 | 38 | 98
